Reference: PubChem BioAssay AID1963968 (Molecular Pharmacology Branch, DTP, NCI, 2024)

Test system: 945468-187-T-J3-PDC spheroids with HUVEC/MSC, viability
Assay: Anticancer human tumor 945468-187-T-J3-PDC patient-derived rectal carcinoma cell line growth inhibition [PI3K]
Conditions: for IC50: curve of first compound; for viability, T/C: stronger effect = lower value
Procedure, shortened: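 Stroma-containing spheroids: tumor line, pooled-donor HUVEC, hMSC. Treatments: targeted agents with PI3K inhibitors. Dosing: clinically relevant, half-log spacing, 10 microM ceiling without known Cmax. Read-out: cell viability.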

[1] = second compound 0.0316 µM, first compound 0.0316 µM
[2] = second compound 0.0316 µM, first compound 0.1 µM
[3] = second compound 0.0316 µM, first compound 0.316 µM
[4] = second compound 0.0316 µM, first compound 1 µM
[5] = second compound 0.0316 µM, first compound 3.16 µM
[6] = second compound 0.0316 µM, first compound 10 µM
[7] = second compound 0.1 µM, first compound 0.0316 µM
[8] = second compound 0.1 µM, first compound 0.1 µM
[9] = second compound 0.1 µM, first compound 0.316 µM
[10] = second compound 0.1 µM, first compound 1 µM
[11] = second compound 0.1 µM, first compound 3.16 µM
[12] = second compound 0.1 µM, first compound 10 µM
[13] = second compound 0.316 µM, first compound 0.0316 µM
[14] = second compound 0.316 µM, first compound 0.1 µM
[15] = second compound 0.316 µM, first compound 0.316 µM
[16] = second compound 0.316 µM, first compound 1 µM
[17] = second compound 0.316 µM, first compound 3.16 µM
[18] = second compound 0.316 µM, first compound 10 µM
[19] = second compound 1 µM, first compound 0.0316 µM
[20] = second compound 1 µM, first compound 0.1 µM
[21] = second compound 1 µM, first compound 0.316 µM
[22] = second compound 1 µM, first compound 1 µM
[23] = second compound 1 µM, first compound 3.16 µM
[24] = second compound 1 µM, first compound 10 µM
[25] = second compound 3.16 µM, first compound 0.0316 µM
[26] = second compound 3.16 µM, first compound 0.1 µM
[27] = second compound 3.16 µM, first compound 0.316 µM
[28] = second compound 3.16 µM, first compound 1 µM
[29] = second compound 3.16 µM, first compound 3.16 µM
[30] = second compound 3.16 µM, first compound 10 µM
[31] = second compound 10 µM, first compound 0.0316 µM
[32] = second compound 10 µM, first compound 0.1 µM
[33] = second compound 10 µM, first compound 0.316 µM
[34] = second compound 10 µM, first compound 1 µM
[35] = second compound 10 µM, first compound 3.16 µM
[36] = second compound 10 µM, first compound 10 µM
[37] = second compound 0.00316 µM, first compound 0.0316 µM
[38] = second compound 0.00316 µM, first compound 0.1 µM
[39] = second compound 0.00316 µM, first compound 0.316 µM
[40] = second compound 0.00316 µM, first compound 1 µM
[41] = second compound 0.00316 µM, first compound 3.16 µM
[42] = second compound 0.00316 µM, first compound 10 µM
[43] = second compound 0.01 µM, first compound 0.0316 µM
[44] = second compound 0.01 µM, first compound 0.1 µM
[45] = second compound 0.01 µM, first compound 0.316 µM
[46] = second compound 0.01 µM, first compound 1 µM
[47] = second compound 0.01 µM, first compound 3.16 µM
[48] = second compound 0.01 µM, first compound 10 µM
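Note: spheroids exposed to agents for 7 days before viability read.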
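Throughout, for viability, T/C: 100% = DMSO vehicle control viability.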

Compound: CC1(C)CCC(Nc2ncc(C(F)(F)F)c(-c3c[nH]c4c(P(C)(C)=O)c(C#N)ccc34)n2)CN1 (stereo not given) + CC(Nc1ncnc2nc[nH]c12)c1cc2cccc(Cl)c2c(=O)n1-c1ccccc1
- IC50 (second compound 0.0316 µM): 4.49 µM
- IC50 (second compound 0.1 µM): 4.55 µM
- IC50 (second compound 0.316 µM): 4.74 µM
- IC50 (second compound 1 µM): 4.69 µM
- IC50 (second compound 3.16 µM): 4.74 µM
- IC50 (second compound 10 µM): 4.74 µM
- viability, T/C [1]: 65.5%
- viability, T/C [2]: 64.1%
- viability, T/C [3]: 58.2%
- viability, T/C [4]: 68.1%
- viability, T/C [5]: 75.1%
- viability, T/C [6]: 12.9%
- viability, T/C [7]: 67.7%
- viability, T/C [8]: 59.8%
- viability, T/C [9]: 54.9%
- viability, T/C [10]: 72%
- viability, T/C [11]: 73%
- viability, T/C [12]: 16.6%
- viability, T/C [13]: 68.2%
- viability, T/C [14]: 67.4%
- viability, T/C [15]: 55.8%
- viability, T/C [16]: 66.2%
- viability, T/C [17]: 86.7%
- viability, T/C [18]: 15.2%
- viability, T/C [19]: 79.9%
- viability, T/C [20]: 62.4%
- viability, T/C [21]: 56.6%
- viability, T/C [22]: 67.5%
- viability, T/C [23]: 78.9%
- viability, T/C [24]: 13.4%
- viability, T/C [25]: 73.8%
- viability, T/C [26]: 64.3%
- viability, T/C [27]: 59%
- viability, T/C [28]: 66.6%
- viability, T/C [29]: 79.4%
- viability, T/C [30]: 15.7%
- viability, T/C [31]: 78.9%
- viability, T/C [32]: 66.1%
- viability, T/C [33]: 77.9%
- viability, T/C [34]: 58.9%
- viability, T/C [35]: 81.4%
- viability, T/C [36]: 7.98%

Compound: CC1(C)CCC(CN2CCN(c3ccc(C(=O)NS(=O)(=O)c4ccc(NCC5CCOCC5)c([N+](=O)[O-])c4)c(Oc4cnc5[nH]ccc5c4)c3)CC2)=C(c2ccc(Cl)cc2)C1 + Cc1nc(NC(=O)N2CCCC2C(N)=O)sc1-c1ccnc(C(C)(C)C(F)(F)F)c1
- IC50 (second compound 0.0316 µM): 6.84 µM
- IC50 (second compound 0.1 µM): 6.42 µM
- IC50 (second compound 0.316 µM): 6.58 µM
- IC50 (second compound 1 µM): 6.68 µM
- IC50 (second compound 3.16 µM): 6.32 µM
- IC50 (second compound 10 µM): 4.27 µM
- viability, T/C [1]: 95.4%
- viability, T/C [2]: 109%
- viability, T/C [3]: 97.5%
- viability, T/C [4]: 120%
- viability, T/C [5]: 125%
- viability, T/C [6]: 20.8%
- viability, T/C [7]: 100%
- viability, T/C [8]: 108%
- viability, T/C [9]: 101%
- viability, T/C [10]: 117%
- viability, T/C [11]: 123%
- viability, T/C [12]: 12.5%
- viability, T/C [13]: 107%
- viability, T/C [14]: 112%
- viability, T/C [15]: 113%
- viability, T/C [16]: 120%
- viability, T/C [17]: 130%
- viability, T/C [18]: 12.2%
- viability, T/C [19]: 117%
- viability, T/C [20]: 115%
- viability, T/C [21]: 106%
- viability, T/C [22]: 113%
- viability, T/C [23]: 114%
- viability, T/C [24]: 15.8%
- viability, T/C [25]: 116%
- viability, T/C [26]: 101%
- viability, T/C [27]: 101%
- viability, T/C [28]: 122%
- viability, T/C [29]: 104%
- viability, T/C [30]: 14.5%
- viability, T/C [31]: 70.7%
- viability, T/C [32]: 59%
- viability, T/C [33]: 63.8%
- viability, T/C [34]: 68.4%
- viability, T/C [35]: 63.3%
- viability, T/C [36]: 12.1%

Compound: C[C@@H](NC(=O)c1ncnc(N)c1Cl)c1ncc(C(=O)Nc2cc(C(F)(F)F)c(Cl)cn2)s1 + COc1c(OCCCN2CCOCC2)ccc2c3n(c(=NC(=O)c4cnc(N)nc4)nc12)CCN3
- IC50 (second compound 0.00316 µM): > 10 µM
- IC50 (second compound 0.01 µM): > 10 µM
- IC50 (second compound 0.0316 µM): > 10 µM
- IC50 (second compound 0.1 µM): < 0.0316 µM
- IC50 (second compound 0.316 µM): < 0.0316 µM
- IC50 (second compound 1 µM): < 0.0316 µM
- viability, T/C [37]: 89.2%
- viability, T/C [38]: 101%
- viability, T/C [39]: 97.1%
- viability, T/C [40]: 104%
- viability, T/C [41]: 98.4%
- viability, T/C [42]: 95.9%
- viability, T/C [43]: 118%
- viability, T/C [44]: 91.7%
- viability, T/C [45]: 101%
- viability, T/C [46]: 99.3%
- viability, T/C [47]: 94.6%
- viability, T/C [48]: 90.3%
- viability, T/C [1]: 94.5%
- viability, T/C [2]: 101%
- viability, T/C [3]: 83.8%
- viability, T/C [4]: 95%
- viability, T/C [5]: 92%
- viability, T/C [6]: 102%
- viability, T/C [7]: 34.8%
- viability, T/C [8]: 42.1%
- viability, T/C [9]: 39%
- viability, T/C [10]: 45.5%
- viability, T/C [11]: 45.6%
- viability, T/C [12]: 51.8%
- viability, T/C [13]: 19.7%
- viability, T/C [14]: 22.8%
- viability, T/C [15]: 19.8%
- viability, T/C [16]: 18.2%
- viability, T/C [17]: 20.8%
- viability, T/C [18]: 21.4%
- viability, T/C [19]: 17.3%
- viability, T/C [20]: 17.7%
- viability, T/C [21]: 17.4%
- viability, T/C [22]: 16.1%
- viability, T/C [23]: 19%
- viability, T/C [24]: 19.9%

Compound: CCCS(=O)(=O)Nc1ccc(F)c(C(=O)c2c[nH]c3ncc(-c4ccc(Cl)cc4)cc23)c1F + CC(Nc1ncnc2nc[nH]c12)c1cc2cccc(Cl)c2c(=O)n1-c1ccccc1
- IC50 (second compound 0.0316 µM): 8.2 µM
- IC50 (second compound 0.1 µM): > 10 µM
- IC50 (second compound 0.316 µM): > 10 µM
- IC50 (second compound 1 µM): > 10 µM
- IC50 (second compound 3.16 µM): > 10 µM
- IC50 (second compound 10 µM): > 10 µM
- viability, T/C [1]: 100%
- viability, T/C [2]: 96.7%
- viability, T/C [3]: 103%
- viability, T/C [4]: 101%
- viability, T/C [5]: 99.2%
- viability, T/C [6]: 39.8%
- viability, T/C [7]: 104%
- viability, T/C [8]: 95.8%
- viability, T/C [9]: 93.8%
- viability, T/C [10]: 91.3%
- viability, T/C [11]: 111%
- viability, T/C [12]: 77.9%
- viability, T/C [13]: 102%
- viability, T/C [14]: 101%
- viability, T/C [15]: 91.7%
- viability, T/C [16]: 99.3%
- viability, T/C [17]: 98.3%
- viability, T/C [18]: 60.6%
- viability, T/C [19]: 88.6%
- viability, T/C [20]: 92.8%
- viability, T/C [21]: 89.4%
- viability, T/C [22]: 92%
- viability, T/C [23]: 101%
- viability, T/C [24]: 68.7%
- viability, T/C [25]: 92.6%
- viability, T/C [26]: 91.3%
- viability, T/C [27]: 102%
- viability, T/C [28]: 105%
- viability, T/C [29]: 105%
- viability, T/C [30]: 56.5%
- viability, T/C [31]: 91.3%
- viability, T/C [32]: 99.4%
- viability, T/C [33]: 94.8%
- viability, T/C [34]: 92.2%
- viability, T/C [35]: 105%
- viability, T/C [36]: 94.1%

Compound: C=CC(=O)N1CCN(c2nc(=O)n(-c3c(C)ccnc3C(C)C)c3nc(-c4c(O)cccc4F)c(F)cc23)C(C)C1 (stereo not given) + COc1c(OCCCN2CCOCC2)ccc2c3n(c(=NC(=O)c4cnc(N)nc4)nc12)CCN3
- IC50 (second compound 0.00316 µM): > 10 µM
- IC50 (second compound 0.01 µM): > 10 µM
- IC50 (second compound 0.0316 µM): > 10 µM
- IC50 (second compound 0.1 µM): < 0.0316 µM
- IC50 (second compound 0.316 µM): < 0.0316 µM
- IC50 (second compound 1 µM): < 0.0316 µM
- viability, T/C [37]: 97.2%
- viability, T/C [38]: 109%
- viability, T/C [39]: 125%
- viability, T/C [40]: 89.9%
- viability, T/C [41]: 95.8%
- viability, T/C [42]: 99.4%
- viability, T/C [43]: 105%
- viability, T/C [44]: 90%
- viability, T/C [45]: 94.1%
- viability, T/C [46]: 97.5%
- viability, T/C [47]: 101%
- viability, T/C [48]: 92.4%
- viability, T/C [1]: 95.4%
- viability, T/C [2]: 86.7%
- viability, T/C [3]: 86.6%
- viability, T/C [4]: 88.2%
- viability, T/C [5]: 95.1%
- viability, T/C [6]: 96.9%
- viability, T/C [7]: 49.2%
- viability, T/C [8]: 48.2%
- viability, T/C [9]: 57.6%
- viability, T/C [10]: 62%
- viability, T/C [11]: 75.2%
- viability, T/C [12]: 74.3%
- viability, T/C [13]: 20.3%
- viability, T/C [14]: 20.9%
- viability, T/C [15]: 21.1%
- viability, T/C [16]: 22.6%
- viability, T/C [17]: 22.9%
- viability, T/C [18]: 28.9%
- viability, T/C [19]: 17%
- viability, T/C [20]: 18.3%
- viability, T/C [21]: 14.3%
- viability, T/C [22]: 15.5%
- viability, T/C [23]: 17.5%
- viability, T/C [24]: 19%
